Assay results published in ChEMBL document CHEMBL1135245, “Highly potent inhibitors of TNF-alpha production. Part 1: Discovery of chemical leads” (2002).

Legend:
Rattus norvegicus [1] = assay: Inhibition of Tumor necrosis factor alpha production after i.v. dose of 0.01-0.1 mg/10 mL/kg in 6-8 weeks old rats.; type: functional; settings: for ED50: Rattus norvegicus, iv, read-out: ID50 (the source's name)
Rattus norvegicus [2] = assay: Tested for inhibition of Tumor necrosis factor alpha production after intravenous dosage of 10 mg/kg to 6-8 weeks old rats; type: functional
Mus musculus [3] = assay: Tested for inhibition of Tumor necrosis factor alpha production after intravenous dosage of 10 mg/kg to 8 weeks old mice; type: functional
Mus musculus [4] = assay: Tested for inhibition of Tumor necrosis factor alpha production in 8 weeks old mice after intravenous dosage of 0.01-0.1 mg/10 mL/kg; type: functional; settings: for ED50: Mus musculus, iv, read-out: ID50 (the source's name)
Rattus norvegicus [5] = assay: Tested for inhibition of Tumor necrosis factor alpha production after intravenous dosage of 30 mg/kg to 6-8 weeks old rats pretreated with saline; type: functional
Rattus norvegicus [6] = assay: Tested for inhibition of Tumor necrosis factor alpha production (po) in rats; type: functional; settings: read-out: ID50 (the source's name)
Mus musculus [7] = assay: Tested for inhibition of Tumor necrosis factor alpha production after intravenous dosage of 30 mg/kg to 8 weeks old mice; type: functional
Rattus norvegicus [8] = assay: Tested for inhibition of Tumor necrosis factor alpha production after intravenous dosage of 10 mg/kg to 6-8 weeks old rats

Q: For CCCCCCCC(=O)NC(COP(=O)([O-])[O-])c1ccccc1C.[Na+].[Na+] (stereo not given), which ED50 (Rattus norvegicus [1]) is on record?
A: The ED50 was 2 mg/kg.

Q: With CCCCCCCC(=O)NC(COP(=O)([O-])[O-])c1cccc(C)c1.[Na+].[Na+] (stereo not given) as the compound, how does the ED50 (Rattus norvegicus [1]) read?
A: Its ED50 is 53 mg/kg.

Q: With CCCCCCCC(=O)NC(COP(=O)(O)O)c1ccc(Cl)cc1 (stereo not given) as the compound, how does the inhibition in vivo at 10 mg/kg (Rattus norvegicus [2]) read?
A: Its inhibition in vivo at 10 mg/kg is -118%.

Q: For CCCCCCCC(=O)N[C@H](COP(=O)([O-])[O-])c1ccccc1.[Na+].[Na+], which ED50 (Rattus norvegicus [1]) is on record?
A: Its ED50 is 10 mg/kg.

Q: For CCCCCCCC(=O)NC(COP(=O)(O)O)c1ccc(C)cc1 (stereo not given), which inhibition in vivo at 10 mg/kg (Rattus norvegicus [2]) is on record?
A: The inhibition in vivo at 10 mg/kg was 44%.

Q: Which inhibition in vivo at 10 mg/kg (Mus musculus [3]) does the source give for CCCCCCC(C)(C)C(=O)N[C@@H](COP(=O)(O)O)c1ccccc1 here?
A: The inhibition in vivo at 10 mg/kg was 56%.

Q: Which results are given for CCCCCCOC(=O)N[C@@H](COP(=O)([O-])[O-])c1ccccc1.[Na+].[Na+]?
A: ED50 (Rattus norvegicus [1]): 3.2 mg/kg; ED50 (Mus musculus [4]): 1.1 mg/kg

Q: For CCCCCCCCCCC(=O)N[C@@H](COP(=O)(O)O)c1ccccc1, which inhibition in vivo at 10 mg/kg (Mus musculus [3]) is on record?
A: The inhibition in vivo at 10 mg/kg was 50%.

Q: Which inhibition in vivo at 10 mg/kg (Mus musculus [3]) does the source give for CC(=O)N[C@@H](COP(=O)(O)O)c1ccccc1 here?
A: The inhibition in vivo at 10 mg/kg was 28%.

Q: And the inhibition in vivo at 30 mg/kg (Rattus norvegicus [5])?
A: The inhibition in vivo at 30 mg/kg was 21%.

Q: Which results are given for CCCCCC(=O)N[C@@H](COP(=O)([O-])[O-])c1ccccc1.[Na+].[Na+]?
A: ED50 (Rattus norvegicus [1]): 50 mg/kg; ED50 (Mus musculus [4]): 30 mg/kg

Q: CCCCCCCC(=O)NC(COP(=O)([O-])[O-])c1cccc(OC(C)C)c1.[Na+].[Na+] (stereo not given) was tested. Which ED50 (Rattus norvegicus [1]) did it give?
A: Its ED50 is 0.1 mg/kg.

Q: What does the source list for CCCC(=O)N[C@@H](COP(=O)(O)O)c1ccccc1?
A: inhibition in vivo at 10 mg/kg (Mus musculus [3]): 17%; inhibition in vivo at 30 mg/kg (Rattus norvegicus [5]): 37%

Q: Which results are given for CCCCCCC(=O)N[C@@H](COP(=O)([O-])[O-])c1ccccc1.[Na+].[Na+]?
A: ED50 (Rattus norvegicus [1]): 4.5 mg/kg; ED50 (Mus musculus [4]): 2.8 mg/kg

Q: CCCCCCCC(=O)NC(COP(=O)(O)O)c1ccccc1Cl (stereo not given) was tested. Which inhibition in vivo at 10 mg/kg (Rattus norvegicus [2]) did it give?
A: The inhibition in vivo at 10 mg/kg was 46%.

Q: What does the source list for CCCCCCCC(=O)N[C@@H](COP(=O)([O-])[O-])c1ccccc1.[Na+].[Na+]?
A: ED50 (Rattus norvegicus [1]): 3 mg/kg; ED50 (Mus musculus [4]): 0.8 mg/kg; ED50 (Rattus norvegicus [6]): 103 mg/kg

Q: With CCCCCCCC(=O)NC(COP(=O)([O-])[O-])c1cccc(OCCC)c1.[Na+].[Na+] (stereo not given) as the compound, how does the ED50 (Rattus norvegicus [1]) read?
A: The ED50 was 0.7 mg/kg.

Q: For CCCCCCCC(=O)NC(COP(=O)([O-])[O-])c1cccc(Cl)c1.[Na+].[Na+] (stereo not given), which ED50 (Rattus norvegicus [1]) is on record?
A: Its ED50 is 5.2 mg/kg.

Q: With CCCCCCCC(=O)NC(COP(=O)(O)O)c1ccc(OC)cc1 (stereo not given) as the compound, how does the inhibition in vivo at 10 mg/kg (Rattus norvegicus [2]) read?
A: The inhibition in vivo at 10 mg/kg was 34%.

Q: Which ED50 (Rattus norvegicus [1]) does the source give for CCCCCCCC(=O)NC(COP(=O)([O-])[O-])c1cccc(OCC)c1.[Na+].[Na+] (stereo not given) here?
A: Its ED50 is 0.2 mg/kg.

Q: How did the ED50 (Rattus norvegicus [1]) turn out when CCCCCCCC(=O)NC(COP(=O)([O-])[O-])c1cc(OC)cc(OC)c1.[Na+].[Na+] (stereo not given) was run?
A: Its ED50 is 3.8 mg/kg.

Q: With CCCCCCCC(=O)NC(COP(=O)([O-])[O-])c1cccc(OC2CCC2)c1.[Na+].[Na+] (stereo not given) as the compound, how does the ED50 (Rattus norvegicus [1]) read?
A: The ED50 was 0.9 mg/kg.

Q: For CCCCCCCC(=O)NC(COP(=O)([O-])[O-])c1cccc(SC(C)C)c1.[Na+].[Na+] (stereo not given), which ED50 (Rattus norvegicus [1]) is on record?
A: The ED50 was 0.21 mg/kg.

Q: How did the inhibition in vivo at 10 mg/kg (Mus musculus [3]) turn out when CCCCCCNC(=O)N[C@@H](COP(=O)(O)O)c1ccccc1 was run?
A: The inhibition in vivo at 10 mg/kg was 58%.

Q: Which inhibition in vivo at 10 mg/kg (Rattus norvegicus [2]) does the source give for CCCCCCCC(=O)NC(COP(=O)(O)O)c1cccc(OC2CCCC2)c1 (stereo not given) here?
A: The inhibition in vivo at 10 mg/kg was 7%.

Q: Which ED50 (Rattus norvegicus [1]) does the source give for CCCCCCCC(=O)NC(COP(=O)([O-])[O-])c1cccc(O)c1.[Na+].[Na+] (stereo not given) here?
A: Its ED50 is 1.4 mg/kg.

Q: Which ED50 (Rattus norvegicus [1]) does the source give for CCCCCCCC(=O)NC(COP(=O)([O-])[O-])c1cccc(SC)c1.[Na+].[Na+] (stereo not given) here?
A: Its ED50 is 0.56 mg/kg.

Q: Which ED50 (Mus musculus [4]) does the source give for CCCCCCCC(=O)N[C@@H](COP(=O)([O-])[O-])c1cccc(OC)c1.[Na+].[Na+] here?
A: Its ED50 is 0.26 mg/kg.

Q: For CCCC(CCC)C(=O)N[C@@H](COP(=O)(O)O)c1ccccc1, which inhibition in vivo at 30 mg/kg (Mus musculus [7]) is on record?
A: The inhibition in vivo at 30 mg/kg was 36%.

Q: O=C(CCCCc1ccccc1)N[C@@H](COP(=O)(O)O)c1ccccc1 was tested. Which inhibition in vivo at 10 mg/kg (Mus musculus [3]) did it give?
A: Its inhibition in vivo at 10 mg/kg is 27%.

Q: For CCCCCCCC(=O)N[C@H](COP(=O)([O-])[O-])c1cccc(OC)c1.[Na+].[Na+], which ED50 (Rattus norvegicus [1]) is on record?
A: Its ED50 is 1.6 mg/kg.

Q: For CCCCCCCC(=O)NC(COP(=O)(O)O)c1ccccc1OC (stereo not given), which inhibition in vivo at 10 mg/kg (Rattus norvegicus [8]) is on record?
A: Its inhibition in vivo at 10 mg/kg is 55%.

Q: Which ED50 (Mus musculus [3]; read-out: ID50 (the source's name)) does the source give for O=C(N[C@@H](COP(=O)([O-])[O-])c1ccccc1)c1ccccc1.[Na+].[Na+] here?
A: Its ED50 is 32 mg/kg.

Q: How did the ED50 (Rattus norvegicus [1]) turn out when CCCCCCCC(=O)NC(COP(=O)([O-])[O-])c1cccc(OC)c1.[Na+].[Na+] (stereo not given) was run?
A: The ED50 was 0.5 mg/kg.

Q: With CCCCCCCC(=O)NC(COP(=O)([O-])[O-])c1cccc(OCC(C)C)c1.[Na+].[Na+] (stereo not given) as the compound, how does the ED50 (Rattus norvegicus [1]) read?
A: Its ED50 is 33 mg/kg.

Q: CCCCCCC(C)C(=O)N[C@@H](COP(=O)([O-])[O-])c1ccccc1.[Na+].[Na+] (single isomer, unassigned; more polar) was tested. Which ID50 (Rattus norvegicus [1]) did it give?
A: The ID50 was 1.7 mg/kg.

Q: And the ID50 (Mus musculus [4])?
A: The ID50 was 2.4 mg/kg.

Q: Which ID50 (Rattus norvegicus [1]) does the source give for CCCCCCC(C)C(=O)N[C@@H](COP(=O)([O-])[O-])c1ccccc1.[Na+].[Na+] (stereo in doubt) here?
A: Its ID50 is 8 mg/kg.

Q: What about the ED50 (Mus musculus [4]) of the same compound?
A: Its ED50 is 4.2 mg/kg.
